Laboratory results taken from ChEMBL document CHEMBL5236559 (J Med Chem, 2021).

Tests used:
Assay type in all cases: functional, cell-based
HL-60 = experiment: Cytotoxicity against human HL-60 cells assessed as reduction in cell viability incubated for 48 hrs by MTT assay; conditions: HL-60, 48 h
HeLa = experiment: Cytotoxicity against human HeLa cells assessed as reduction in cell viability incubated for 48 hrs by MTT assay
SMMC-7721 = experiment: Cytotoxicity against human SMMC-7721 cells assessed as reduction in cell viability incubated for 48 hrs by MTT assay; conditions: SMMC-7721, 48 h
HepG2 = experiment: Cytotoxicity against human HepG2 cells assessed as reduction in cell viability incubated for 48 hrs by MTT assay; conditions: HepG2, 48 h

Row | Compound | IC50 (HL-60) [µM] | IC50 (HeLa) [µM] | IC50 (SMMC-7721) [µM] | IC50 (HepG2) [µM]
1 | NCCCCCC(=O)Nc1cccc([As]2SCCCS2)c1 | 1.51 | > 10 | > 10 | 5.48
2 | NCCCCCC(=O)Nc1ccccc1[As]1SCCCS1 | 1.64 | > 10 | > 10 | 8.47
3 | NCCCCCC(=O)Nc1ccc([As]2SCCCS2)cc1 | 1.25 | > 10 | > 10 | 5.36
